Assay results taken from patent publication US11254668B2, “Pyrazolo[1,5-A]pyrazin-4-yl and related derivatives” (Pfizer Inc., priority 2017, dated 2022).
Like-named read-outs stand apart in the source and are kept apart here.

Columns and labels:
Assay type in all cases: biochemical
TYK2 = TYK2 (Homo sapiens (Human), UniProt P29597); test: JAK Caliper Enzyme Assay at 1 mM ATP, TYK2
Outline: (§1)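 Peptide phosphorylation by recombinant human kinase domain, 1 mM ATP, room temperature, EDTA-terminated, detected by microfluidic mobility shift; % effect normalised to DMSO baseline.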

JAK1 = JAK1 (Homo sapiens (Human), UniProt P23458); test: JAK Caliper Enzyme Assay at 1 mM ATP, JAK1
Outline: (§2)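 Recombinant human kinase domains phosphorylate a fluorescent synthetic peptide at 1 mM ATP, room temperature, with enzyme and time tuned for 20-30% conversion; EDTA-stopped. Product/substrate separated by microfluidic mobility shift; percent effect versus DMSO and positive controls fitted to IC50 (nM).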

JAK2 = JAK2 (Homo sapiens (Human), UniProt O60674); test: JAK Caliper Enzyme Assay at 1 mM ATP, JAK2
Outline: as §1

JAK3 = JAK3 (Homo sapiens (Human), UniProt P52333); test: JAK Caliper Enzyme Assay at 1 mM ATP, JAK3
Outline: as §2

Sequence of JAK2 (O60674 849-1124): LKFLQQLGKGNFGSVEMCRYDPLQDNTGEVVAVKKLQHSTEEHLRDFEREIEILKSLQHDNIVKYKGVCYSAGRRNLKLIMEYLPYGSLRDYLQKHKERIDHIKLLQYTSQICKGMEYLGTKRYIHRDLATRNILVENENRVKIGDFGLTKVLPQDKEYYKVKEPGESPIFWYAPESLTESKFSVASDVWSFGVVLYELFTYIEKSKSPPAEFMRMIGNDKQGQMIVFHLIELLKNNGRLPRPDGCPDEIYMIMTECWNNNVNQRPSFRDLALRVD
Sequence of JAK3 (P52333 822-1111): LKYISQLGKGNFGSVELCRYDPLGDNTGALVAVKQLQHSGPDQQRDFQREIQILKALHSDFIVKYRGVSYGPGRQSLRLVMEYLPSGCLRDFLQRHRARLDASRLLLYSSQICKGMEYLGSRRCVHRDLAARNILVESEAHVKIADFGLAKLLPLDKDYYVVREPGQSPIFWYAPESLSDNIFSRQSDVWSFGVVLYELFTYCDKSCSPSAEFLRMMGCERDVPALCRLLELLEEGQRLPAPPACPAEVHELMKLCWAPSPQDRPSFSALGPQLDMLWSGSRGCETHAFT
Sequence of JAK1 (P23458 875-1153): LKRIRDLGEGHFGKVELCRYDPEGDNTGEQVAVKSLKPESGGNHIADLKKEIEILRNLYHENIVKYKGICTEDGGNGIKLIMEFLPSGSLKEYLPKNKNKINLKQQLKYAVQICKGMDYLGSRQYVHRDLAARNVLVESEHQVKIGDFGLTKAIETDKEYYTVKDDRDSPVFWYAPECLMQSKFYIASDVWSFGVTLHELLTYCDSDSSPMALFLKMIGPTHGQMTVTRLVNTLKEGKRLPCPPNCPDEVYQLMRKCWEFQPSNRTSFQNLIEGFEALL
Sequence of TYK2 (P29597 897-1176): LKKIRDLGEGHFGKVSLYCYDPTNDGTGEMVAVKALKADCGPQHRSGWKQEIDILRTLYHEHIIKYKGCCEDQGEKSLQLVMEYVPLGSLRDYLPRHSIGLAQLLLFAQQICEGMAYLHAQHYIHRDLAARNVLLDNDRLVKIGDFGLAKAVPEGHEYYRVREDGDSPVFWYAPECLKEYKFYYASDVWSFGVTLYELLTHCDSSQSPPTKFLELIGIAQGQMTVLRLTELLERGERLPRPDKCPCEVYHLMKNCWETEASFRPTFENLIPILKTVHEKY

Structure (SMILES) | IC50 (TYK2; JAK Caliper enzyme assay) [nM] | IC50 (JAK1; JAK Caliper enzyme assay) [nM] | IC50 (JAK2; JAK Caliper enzyme assay) [nM] | IC50 (JAK3; JAK Caliper enzyme assay) [nM] | IC50 (TYK2) [nM] | IC50 (JAK1) [nM] | IC50 (JAK2) [nM] | IC50 (JAK3) [nM]
Cc1ncc(N)nc1-c1cc(-c2cnn([C@]3(CC#N)C[C@H](C#N)C3)n2)c2cccnc2c1 [Example 404, cis-3-{4-[7-(6-amino-3-methylpyrazin-2-yl)quinolin-5-yl]-2H-1,2,3-triazol-2-yl}-3-(cyanomethyl)cyclobutanecarbonitrile] | 7400 | > 10000 | > 10000 | > 10000 |  |  |  | 
CS(=O)(=O)N1CC(CC#N)(n2ncc(-c3cc(-c4cccnc4N)cc4ncccc34)n2)C1 [Example 361, [3-{4-[7-(2-aminopyridin-3-yl)quinolin-5-yl]-2H-1,2,3-triazol-2-yl}-1-(methylsulfonyl)azetidin-3-yl]acetonitrile] |  |  |  |  | 3630 | > 10000 | > 10000 | > 10000
Cn1ncc(-c2cc3ncccc3c(-c3ccn([C@]4(CC#N)C[C@@H](C#N)C4)n3)n2)c1CO [Example 136, trans-3-(cyanomethyl)-3-(3-{7-[5-(hydroxymethyl)-1-methyl-1H-pyrazol-4-yl]-1,6-naphthyridin-5-yl}-1H-pyrazol-1-yl)cyclobutanecarbonitrile] |  |  |  |  | 44 | 618 | 260 | > 10000
CC(C)(O)[C@H]1C[C@@](CC#N)(n2ccc(-c3nc(-c4cn[nH]c4)cc4ncccc34)n2)C1 [Example 82, [cis-3-(2-hydroxpropan-2-yl)-1-{3-[7-(1H-pyrazol-4-yl)-1,6-naphthyridin-5-yl]-1H-pyrazol-1-yl}cyclobutyl]acetonitrile] |  |  |  |  | 418 | 3580 | 2390 | > 10000
N#CC[C@]1(n2ncc(-c3cc(-c4ccc(-c5nnn[nH]5)cc4)cc4ncccc34)n2)C[C@@H](C#N)C1 [Example 447, cis-3-(cyanomethyl)-3-(4-{7-[4-(1H-tetrazol-5-yl)phenyl]quinolin-5-yl}-2H-1,2,3-triazol-2-yl)cyclobutanecarbonitrile] | 17 | 180 | 160 | 9400 |  |  |  | 
Cn1ncc(-c2cc3ncccc3c(-c3ccn(C4(CC#N)CC(C#N)C4)n3)n2)c1N (stereo not drawn) [Example 141, trans-3-{3-[7-(5-amino-1-methyl-1H-pyrazol-4-yl)-1,6-naphthyridin-5-yl]-1H-pyrazol-1-yl}-3-(cyanomethyl)cyclobutanecarbonitrile] |  |  |  |  | 49 | 355 | 127 | > 10000
N#CCC1(n2ccc(-c3nc(-c4ccn(C5COC5)n4)cc4ncccc34)n2)CN(CC(F)(F)F)C1 [Example 57, [3-(3-{7-[1-(oxetan-3-yl)-1H-pyrazol-3-yl]-1,6-naphthyridin-5-yl}-1H-pyrazol-1-yl)-1-(2,2,2-trifluoroethyl)azetidin-3-yl]acetonitrile] |  |  |  |  | 257 | > 10000 | 2350 | > 10000
N#CC[C@]1(n2ncc(-c3cc(-c4cccc(C(=O)O)n4)cc4ncccc34)n2)C[C@@H](C#N)C1 [Example 371, 6-(5-{2-[trans-3-cyano-1-(cyanomethyl)cyclobutyl]-2H-1,2,3-triazol-4-yl}quinolin-7-yl)pyridine-2-carboxylic acid] |  |  |  |  | 110 | 9280 | 1610 | > 10000
Cn1cc(-c2cc(-c3cnn([C@]4(CC#N)C[C@@H](C#N)C4)n3)c3cccnc3c2)cn1 [Example 324, trans-3-(cyanomethyl)-3-{4-[7-(1-methyl-1H-pyrazol-4-yl)quinolin-5-yl]-2H-1,2,3-triazol-2-yl}cyclobutanecarbonitrile] |  |  |  |  | 30 | 1420 | 144 | 9930
CS(=O)(=O)N1CC(CC#N)(n2cnc(-c3cc(-c4ccc(=O)[nH]c4)cc4ncccc34)n2)C1 [Example 451, [1-(methylsulfonyl)-3-{3-[7-(6-oxo-1,6-dihydropyridin-3-yl)quinolin-5-yl]-1H-1,2,4-triazol-1-yl}azetidin-3-yl]acetonitrile] | 283 | > 10000 | 7160 | > 10000 |  |  |  | 
Cc1cc(-c2nc(-c3cn[nH]c3)cc3ncccc23)nn1[C@]1(CC#N)C[C@H](C#N)C1 [Example 274, cis-3-(cyanomethyl)-3-{5-methyl-3-[7-(1H-pyrazol-4-yl)-1,6-naphthyridin-5-yl]-1H-pyrazol-1-yl}cyclobutanecarbonitrile] |  |  |  |  | 9 | 60 | 34 | 3360
CO[C@H]1C[C@](CC#N)(n2cc(-c3nc(-c4cnn(CCO)c4)cc4ncccc34)cn2)C1 [Example 9, [trans-1-(4-{7-[1-(2-hydroxyethyl)-1H-pyrazol-4-yl]-1,6-naphthyridin-5-yl}-1H-pyrazol-1-yl)-3-methoxycyclobutyl]acetonitrile] |  |  |  |  | 77 | 520 | 107 | > 10000
N#CC[C@]1(n2cc(-c3cc(-c4cc[nH]n4)cc4nccn34)cn2)C[C@H](C#N)C1 [Example 455, trans-3-(cyanomethyl)-3-{4-[7-(1H-pyrazol-3-yl)imidazo[1,2-a]pyridin-5-yl]-1H-pyrazol-1-yl}cyclobutanecarbonitrile] | 319 | > 10000 | 5680 | > 10000 |  |  |  | 
N#CCC1(n2ncc(-c3cc(-c4scnc4CO)cc4ncccc34)n2)CC(C#N)C1 (stereo not drawn) [Example 344, trans-3-(cyanomethyl)-3-(4-{7-[4-(hydroxymethyl)-1,3-thiazol-5-yl]quinolin-5-yl}-2H-1,2,3-triazol-2-yl)cyclobutanecarbonitrile] |  |  |  |  | 776 | > 10000 | > 10000 | > 10000
N#CC[C@]1(n2ccc(-c3nc(-c4cccc(O)n4)cc4ncccc34)n2)C[C@H](C#N)C1 [Example 182, trans-3-(cyanomethyl)-3-{3-[7-(6-hydroxypyridin-2-yl)-1,6-naphthyridin-5-yl]-1H-pyrazol-1-yl}cyclobutanecarbonitrile] |  |  |  |  | 53 | 2020 | 224 | > 10000
N#CC[C@]1(n2ccc(-c3nc(-c4cc[nH]n4)cc4ncccc34)n2)C[C@@H](C(N)=O)C1 [Example 24, cis-3-(cyanomethyl)-3-{3-[7-(1H-pyrazol-3-yl)-1,6-naphthyridin-5-yl]-1H-pyrazol-1-yl}cyclobutanecarboxamide] |  |  |  |  | 167 | 3670 | 1690 | > 10000

More lines, now with the values ahead:

IC50 (TYK2; JAK Caliper enzyme assay) [nM] | IC50 (JAK1; JAK Caliper enzyme assay) [nM] | IC50 (JAK2; JAK Caliper enzyme assay) [nM] | IC50 (JAK3; JAK Caliper enzyme assay) [nM] | IC50 (TYK2) [nM] | IC50 (JAK1) [nM] | IC50 (JAK2) [nM] | IC50 (JAK3) [nM] | Structure (SMILES)
 |  |  |  | 19 | > 10000 | 566 | > 10000 | CS(=O)(=O)N1CC(CC#N)(n2ccc(-c3nc(-c4ccc(F)cc4O)cc4ncccc34)n2)C1 [Example 259, [3-{3-[7-(4-fluoro-2-hydroxyphenyl)-1,6-naphthyridin-5-yl]-1H-pyrazol-1-yl}-1-(methylsulfonyl)azetidin-3-yl]acetonitrile]
 |  |  |  | 5510 | > 10000 | > 10000 | > 10000 | CS(=O)(=O)N1CC(CC#N)(n2ccc(-c3nc(-c4cncnc4)cc4ncccc34)n2)C1 [Example 235, [1-(methylsulfonyl)-3-{3-[7-(pyrimidin-5-yl)-1,6-naphthyridin-5-yl]-1H-pyrazol-1-yl}azetidin-3-yl]acetonitrile]
 |  |  |  | 148 | 1680 | 856 | > 10000 | CS(=O)(=O)N1CC(CC#N)(n2ccc(-c3nc(-c4c[nH]c5nccc-5c4)cc4ncccc34)n2)C1 [Example 157, [1-(methylsulfonyl)-3-{3-[7-(7H-pyrrolo[2,3-b]pyridin-5-yl)-1,6-naphthyridin-5-yl]-1H-pyrazol-1-yl}azetidin-3-yl]acetonitrile]
 |  |  |  | 24 | 285 | 56 | 9270 | CS(=O)(=O)c1ccc(-c2cc3ncccc3c(-c3ccn(C4(CC#N)CC(C#N)C4)n3)n2)cn1 (stereo not drawn) [Example 207, cis-3-(cyanomethyl)-3-(3-{7-[6-(methylsulfonyl)pyridin-3-yl]-1,6-naphthyridin-5-yl}-1H-pyrazol-1-yl)cyclobutanecarbonitrile]
 |  |  |  | 71 | 966 | 634 | > 10000 | Cc1cc(-c2cc3ncccc3c(-c3ccn(C4(CC#N)CN(CC(F)(F)F)C4)n3)n2)ccn1 [Example 176, [3-{3-[7-(2-methylpyridin-4-yl)-1,6-naphthyridin-5-yl]-1H-pyrazol-1-yl}-1-(2,2,2-trifluoroethyl)azetidin-3-yl]acetonitrile]
 |  |  |  | 32 | 1150 | 390 | > 10000 | CS(=O)(=O)N1CC(CC#N)(n2ncc(-c3cc(-c4cn[nH]c4)cc4ncccc34)n2)C1 [Example 314, [1-(methylsulfonyl)-3-{4-[7-(1H-pyrazol-4-yl)quinolin-5-yl]-2H-1,2,3-triazol-2-yl}azetidin-3-yl]acetonitrile]
 |  |  |  | 51 | 1940 | 433 | > 10000 | CS(=O)(=O)N1CC(CC#N)(n2ccc(-c3nc(-c4ccc(S(N)(=O)=O)nc4)cc4ncccc34)n2)C1 [Example 209, 5-(5-{1-[3-(cyanomethyl)-1-(methylsulfonyl)azetidin-3-yl]-1H-pyrazol-3-yl}-1,6-naphthyridin-7-yl)pyridine-2-sulfonamide]
 |  |  |  | 57 | > 10000 | 1300 | > 10000 | Cc1ncc(-c2cc3ncccc3c(-c3ccn(C4(CC#N)CN(S(C)(=O)=O)C4)n3)n2)cc1O [Example 222, [3-{3-[7-(5-hydroxy-6-methylpyridin-3-yl)-1,6-naphthyridin-5-yl]-1H-pyrazol-1-yl}-1-(methylsulfonyl)azetidin-3-yl]acetonitrile]
